Experimental data: ChEMBL document CHEMBL6092124, “Design, synthesis and biological evaluation of novel cyano-cinnamate derivatives as mitochondrial pyruvate carrier inhibitors” (Bioorg Med Chem Lett, 2024)
Calls of active or inactive are those of the source. The calls are words filed in the database; no cut-off is given here.

How the values were obtained:
MCF-10A [1] = experiment: Inhibition of MPC in human MCF-10A cells assessed as cellular lactate production measured per 10^6 cells at 10 uM measured for 36 hrs; type: cell-based
Mus musculus [2] = species on record: Mus musculus; experiment: Induction of hair growth in C57BL/6J mouse assessed as increase in pigmentation measured after 10 days; type: functional, organism-based; settings: time 10.0 day
MCF-10A [3] = experiment: Inhibition of MPC in human MCF-10A cells assessed as lactate concentration at 10 uM measured for 36 hrs; type: cell-based
Mus musculus [4] = species on record: Mus musculus; experiment: Induction of hair growth in C57BL/6J mouse assessed as appearance of hair growth patches measured on day 17; type: functional, organism-based; settings: time 17.0 day
MCF-10A [5] = experiment: Inhibition of MPC in human MCF-10A cells assessed as cellular lactate production measured per 10^6 cells measured for 36 hrs; type: cell-based; settings: dose 10.0 µM

SMILES | Activity (MCF-10A [1]) [µmol] | Activity (Mus musculus [2]) | Activity (MCF-10A [3]) [µmol/mL] | Activity (Mus musculus [4]) | Activity (MCF-10A [5])
N#C/C(=C\c1cn(Cc2ccccn2)c2ccccc12)C(=O)O | 0.322 | Active; Drug Entered To Anagen Phase | 1.35 | Active | 
CCOC(=O)/C(C#N)=C/c1cn(-c2cn(C)cn2)c2ccccc12 | 0.152 |  | 0.64 |  | 
CCOC(=O)/C(C#N)=C/c1cn(Cc2cccnc2)c2ccccc12 | 0.208 |  | 0.874 |  | 
N#C/C(=C\c1cn(-c2ccccn2)c2ccccc12)C(=O)O | 0.116 |  | 0.489 |  | 
N#C/C(=C\c1cn(Cc2ccc3ccccc3c2)c2ccccc12)C(=O)O | 0.292 |  | 1.23 |  | 
Cn1cnc(-n2cc(/C=C(\C#N)C(=O)O)c3ccccc32)c1 | -0.001 |  | -0.003 |  | 
N#C/C(=C\c1cn(-c2ncccn2)c2ccccc12)C(=O)O | 0.1 |  | 0.421 |  | 
N#C/C(=C\c1cn(-c2ccc3ccccc3c2)c2ccccc12)C(=O)O | 0.123 |  | 0.517 |  | 
N#C/C(=C\c1cn(-c2cccnc2)c2ccccc12)C(=O)O | 0.06 |  | 0.251 |  | 
CCOC(=O)/C(C#N)=C/c1cn(-c2ccncc2)c2ccccc12 | 0.006 |  | 0.025 |  | 
CCOC(=O)/C(C#N)=C/c1cn(-c2ccccn2)c2ccccc12 | 0.148 |  | 0.625 |  | 
CCOC(=O)/C(C#N)=C/c1cn(Cc2ccc3ccccc3c2)c2ccccc12 | 0.064 |  | 0.268 |  | 
N#C/C(=C\c1cn(-c2ccccc2)c2ccccc12)C(=O)O | 0.185 |  | 0.778 | Active | Dose-dependent-effect
N#C/C(=C\c1cn(-c2ccncc2)c2ccccc12)C(=O)O | 0.014 |  | 0.059 |  | 
CCOC(=O)/C(C#N)=C/c1cn(-c2ncccn2)c2ccccc12 | 0.081 |  | 0.342 |  | 
N#C/C(=C\c1cn(Cc2ccncc2)c2ccccc12)C(=O)O | -0.08 |  | -0.337 |  | 
CCOC(=O)/C(C#N)=C/c1cn(-c2ccc3ccccc3c2)c2ccccc12 | 0.104 |  | 0.438 |  | 
CCOC(=O)/C(C#N)=C/c1cn(Cc2ccccn2)c2ccccc12 | -0.03 |  | -0.128 |  | 
N#C/C(=C\c1cn(Cc2cccnc2)c2ccccc12)C(=O)O | 0.093 |  | 0.393 |  | 
CCOC(=O)/C(C#N)=C/c1cn(Cc2ccncc2)c2ccccc12 | -0.005 |  | -0.02 |  | 
N#C/C(=C\c1cn(-c2cncnc2)c2ccccc12)C(=O)O | 0.13 |  | 0.546 |  | 
CCOC(=O)/C(C#N)=C/c1cn(-c2cncnc2)c2ccccc12 | 0.006 |  | 0.025 |  | 
CCOC(=O)/C(C#N)=C/c1cn(-c2cccnc2)c2ccccc12 | 0.033 |  | 0.138 |  | 
